Data on 4 compounds can be found in US10894794B1, “Substituted [1,2,4]triazolo[4,3-a]pyrazines as antidiabetics” (King Abdulaziz University, priority 2019, dated 2021).

Marks after values point to notes of the source that are not given here.

Holding throughout (assay type): in vivo
Experiment [1] has as its system 14 h overnight fasted diabetic mice. Nature of the experiment: Oral glucose tolerance test (OGTT) after single dose. The settings on record: for Relative potency to sitagliptin (OGTT AUC) / AUC in OGTT, % change from diabetic control / AUC in OGTT, Δ from diabetic control / AUC in OGTT, X (arithmetic mean): single oral dose 50 mg/kg; for AUC in OGTT, X (arithmetic mean): AUC 0-120 min; for glucose-lowering activity in OGTT compared with sitagliptin (in words): single dose 50 mg/kg. The method, then:
The oral glucose tolerance test was done in 14 h overnight fasted diabetic mice that were pretreated with a single oral dose of the tested compounds. Each of the tested agents was suspended in sodium carboxymethyl cellulose (CMC-Na) (1% in distilled water) and the dosing volume was adjusted to 10 ml/kg body weight per mouse. Then an oral glucose load was administered (2 g/kg) 2 h after drug treatment. Blood glucose levels were determined using the Accu-check Go® (Roche Diagnostics, Michigan, USA). Blood samples were collected just before drug administration (Fasting Blood glucose), then 2 h after drug treatment and before glucose loading. Blood samples collection was continued at 20, 40, 60 and 120 min intervals after glucose loading.
Animals were distributed between 17 groups (n=6) as follow: • a. Group 1: Animals were 14 h overnight-fasted normoglycemic mice and vehicle-treated (1% CMC-Na) at a dose of 10 ml/kg. • b. Group 2: Overnight fasted diabetic mice received the vehicle (1% CMC-Na) at a dosing volume of 10 ml/kg and served as a negative control. • c. Group 3: Overnight fasted diabetic mice received sitagliptin at a dose of 50 mg/kg in 1% CMC (in a volume of 10 ml/kg) and served as positive control. • a. Groups 4-17: Animals of these groups were overnight fasted diabetic mice received the tested compounds 128, 129, 130, 131, at a dose of 50 mg/kg in 1% CMC (volume of 10 ml/kg).

In experiment [2] the test system is 14 h overnight-fasted diabetic mice. As to the kind of experiment: Blood glucose after introduction of food for one hour (meal tolerance test). To be noted: for antihyperglycemic activity after introduction of food (blood glucose rise and total AUC(0-180), in words): 50 mg/kg, 3 h before introduction of food; for Area under the curve AUC(0-180) after meal feeding: Day 1, 50 mg/kg oral, 3 hr pretreated. The method, then: The rational of this test was to determine the ability of the tested compounds to modulate glucose utilization after the introduction of food, after 3 h of drug administration to 14 h overnight-fasted mice (feeding with normal diet was done for 1 hr only, then food was removed during the remaining time of the test). This model is analogous to oral glucose tolerance tests (OGTT) used clinically to evaluate glycemic control, except that the meal was composed of fats, proteins and carbohydrates, and thus was a more realistic representation of the nutritional makeup of normal food. The main purpose is that during meal digestion, food contents e.g. carbohydrates, proteins and fats, were reported to cause an increase in the production of the GLP-I from the L-cells in ileum and colon. The produced GLP-I goes into circulation directly and affects insulin secretion from pancreatic β-cells. Both the GPL-I and insulin levels are expected to be high especially in the presence of a […] inhibitor.
Animals were Distributed Between 17 Groups (n=6) as Follows: • a. Group 1. Animals of this group were overnight-fasted normoglycemic mice and received the vehicle (1% CMC-Na) at a volume of 10 ml/kg/day for 4 consecutive days. • b. Group 2: overnight-fasted diabetic mice received the vehicle (1% CMC-Na) at a volume of 10 ml/kg/day for 4 consecutive days and served as a negative control. • c. Group 3: overnight fasted diabetic mice received sitagliptin at a dose of 50 mg/kg/day for 4 consecutive days in 1% CMC (in a volume of 10 ml/kg) and served as positive control. • d. Groups 4-19: Animals of these groups were overnight-fasted diabetic mice and received the tested compounds 128, 129, 130, 131,140, 142 at a dose of 50 mg/kg/day for 4 consecutive days in 1% CMC (volume of 10 ml/kg). Food was introduced for one hour only then food was removed immediately. Blood glucose levels were determined just before and 3 h after drug administration and then at 0, 60, 120 and 180 min after meal. Blood Sampling and Blood Glucose Determination
(§1) Blood samples were collected from the tail vein and the blood glucose level was determined. Curves of blood glucose levels (mg/dL) versus the time intervals (min) were constructed and the area under the curves (AUCs) were calculated by the method of calculation embedded in GraphPad Prism® v. 5.0 (GraphPad Software, San Diego, Calif., USA). AUCs of the curves of the different groups were compared and tested for significance against control groups.

Experiment [3] relates to overnight fasted diabetic mice. As to the kind of experiment: OGTT after multiple doses (6 consecutive days). To be noted: for AUC in OGTT, % change from diabetic control / AUC in OGTT, Δ from diabetic control / Relative potency to sitagliptin (OGTT AUC) / AUC in OGTT, X (arithmetic mean): 50 mg/kg oral for six days; for AUC in OGTT, X (arithmetic mean): 2 h before glucose loading, AUC 0-120 min. The method, then: The tested compounds were given daily by oral gavage for 6 consecutive days. On day 6, the overnight fasted diabetic mice were pretreated with the 6th oral dose of the tested compounds. Then an oral glucose was loaded (2 g/kg/10 ml b.w.) 2 h after drug treatment. Blood glucose levels were determined using the Accu-check Go® (Roche Diagnostics, Michigan, USA). Samples were collected just before drug administration (Fasting Blood glucose), then 2 h after drug treatment and before glucose administration. Sample collection was continued at 20, 40, 60 and 120 min intervals after glucose loading.
• b. Group 1: Animals of this group are 14 h overnight-fasted normoglycemic mice received the vehicle (1% CMC-Na) at a dosing volume of 10 ml/kg/day for six consecutive days. • c. Group 2: Overnight-fasted diabetic mice received the vehicle (1% CMC-Na) at a dosing volume of 10 ml/kg/day for six consecutive days and served as a negative control. • d. Group 3: Overnight-fasted diabetic mice received sitagliptin at a dose of 50 mg/kg/day for six consecutive days and served as positive control. • e. Groups 4-17: Animals in these groups were overnight-fasted diabetic mice and received the tested compounds 128, 129, 130, 131, at a dose of 50 mg/kg/day for six consecutive days (volume of 10 ml/kg). Effect on Blood Glucose Level after Introduction of Food for One Hour (≈Meal Tolerance Test) Rational of the Test

The next experiment concerns STZ-diabetic mice. As to the kind of experiment: Fasting blood glucose of diabetic mice during six days of treatment. To be noted: for activity in controlling the rise of blood glucose levels in streptozotocin diabetic animals (in words) / control of fasting blood sugar compared with sitagliptin and the other compounds (in words): 50 mg/kg/day; for activity in controlling the rise of blood glucose levels in streptozotocin diabetic animals (in words): 6-day interval; for control of fasting blood sugar compared with sitagliptin and the other compounds (in words): 6 days; for Blood glucose level, fasting: 50 mg/kg/day oral, diabetic mice, mean ± SEM.
From the text: Our objective was to test the efficacy of the synthesized compounds for their potential to reduce blood glucose in STZ-diabetic mice. The synthesized compounds Nos. 128, 129, 130, 131,140, 142 were expected to act through the inhibition of the DPP-IV enzyme, which is responsible for the degradation of the entero-peptide GLP-I. In turn, GLP-I increases insulin and decreases glucagon release from the pancreatic islets (β and α-cells respectively). So this part of the project was designed to study the effect of the synthesized gliptin simulated compounds on blood glucose levels and their efficacy to increase glucose utilization in diabetic mice through: • a. The effect of the tested compounds in a dose of 50 mg/kg/day on fasting blood glucose blood levels of diabetic mice during six days of treatment. • b. Oral glucose tolerance test (OGTT) through oral glucose loading, 2 h after treatment with single oral dose (50 mg/kg) of the tested compounds in 14 h overnight fasted mice. • c. OGTT through oral glucose loading, 2 h after treatment with the 6th oral dose (50 mg/kg) of the tested compounds in 14 h overnight fasted mice. • d. The effect of the pretreatment with the tested compounds at an oral dose of 50 mg/kg on blood glucose levels, 3 h before and 3 h after meal feeding (feeding for one hour only, then food was removed immediately) in 14 h overnight-fasted diabetic mice.
as §1
All data are presented as means±SEM. Statistical significance was evaluated by analysis of variance (ANOVA) followed by Tukey-Kramer's post hoc test for multiple comparisons. The “t” of the paired data was used to test the significance of the values of the fasting blood glucose compared to the values before treatment. Statistical significance was accepted at a level of p<0.05.

In the case of `N[C@@H](CC(=O)N1CCn2c(nnc2C(F)(F)F)C1)Cc1cc(F)c(F)cc1F` [Sitagliptin, sitagliptin, reference compound], the “reduction in the total AUC compared to the diabetic control mice” value in experiment [1] (single dose, 2 h before glucose loading, AUC 0-120) is reported as 24.2%. The “Relative potency to sitagliptin (OGTT AUC)” value (“Relative potency … (OGTT AUC)” below) in experiment [1] was determined as 1. For the same compound, in experiment [1] (2 h before glucose loading), the “AUC in OGTT, % change from diabetic control” value (“AUC in OGTT, % change” for short) is given as −24.20%; the “AUC in OGTT, Δ from diabetic control” value was -12362 mg·min/dL; the “AUC in OGTT, X (arithmetic mean)” value is given as 38703* mg · dL^−1 · min. In addition, in experiment [2], the “antihyperglycemic activity after introduction of food (blood glucose rise and total AUC(0-180), in words)” value (shortened to “antihyperglycemic activity”) is given as “significant antihyperglycemic activity”; the “Area under the curve AUC(0-180) after meal feeding” value (from here on “Area”) is 51776 ± mg · dL^−1 · min. Further, in experiment [3], the “AUC in OGTT, % change” value is reported as −37.85%; the “AUC in OGTT, Δ from diabetic control” value was -19932 mg·min/dL; the “Relative potency … (OGTT AUC)” value was 1; the “AUC in OGTT, X (arithmetic mean)” value was 32723 mg·min/dL.

As to `O=C(NCCC(=O)N1CCn2c(nnc2C(F)(F)F)C1)c1cccc(Cl)c1` [GLP-129], in experiment [1], the “glucose-lowering activity in OGTT compared with sitagliptin (in words)” value is “less potent than sitagliptin” and the “Relative potency … (OGTT AUC)” value was found to be 0.45. Further, in experiment [1] (2 h before glucose loading), the “AUC in OGTT, % change” value was −10.93%; the “AUC in OGTT, Δ from diabetic control” value is -5585 mg·min/dL; the “AUC in OGTT, X (arithmetic mean)” value was found to be 45480 mg·min/dL. Further, in experiment [2], the “antihyperglycemic activity” value is on record as “significant antihyperglycemic activity”; the “Area” value is 73248 ± mg · dL^−1 · min. Further, in experiment [3], the “AUC in OGTT, % change” value is reported as −11.76%; the “AUC in OGTT, Δ from diabetic control” value is -6197 mg·min/dL; the “Relative potency … (OGTT AUC)” value is listed as 0.31; the “AUC in OGTT, X (arithmetic mean)” value came out at 46458 mg·min/dL. Also, in the experiment on STZ-diabetic mice, the “activity in controlling the rise of blood glucose levels in streptozotocin diabetic animals (in words)” value (from here on “activity in controlling the rise”) is given as “significant activity”; the “control of fasting blood sugar compared with sitagliptin and the other compounds (in words)” value is given as “comparable to that of sitagliptin”.

In the case of `O=C(NCC(=O)N1CCn2c(nnc2C(F)(F)F)C1)c1cccc(Cl)c1` [GLP-128], in experiment [1], the “glucose-lowering activity in OGTT compared with sitagliptin (in words)” value is on record as “higher glucose-lowering activity than sitagliptin” and the “Relative potency … (OGTT AUC)” value was 1.2. For the same compound, in experiment [1] (2 h before glucose loading), the “AUC in OGTT, % change” value is listed as −29.15%; the “AUC in OGTT, Δ from diabetic control” value was -14887 mg·min/dL; the “AUC in OGTT, X (arithmetic mean)” value is 36178* mg · dL^−1 · min. Also, in experiment [2], the “antihyperglycemic activity” value was “significant antihyperglycemic activity”; the “Area” value is reported as 69336 ± mg · dL^−1 · min. Further, in experiment [3], the “AUC in OGTT, % change” value is listed as −11.93%; the “AUC in OGTT, Δ from diabetic control” value is -6287 mg·min/dL; the “Relative potency … (OGTT AUC)” value is 0.32; the “AUC in OGTT, X (arithmetic mean)” value is 46368 mg·min/dL. For the same compound, in the experiment on STZ-diabetic mice, the “activity in controlling the rise” value is listed as “significant activity”; the “control of fasting blood sugar compared with sitagliptin and the other compounds (in words)” value was “least effective”. The “Blood glucose level, fasting” value with STZ-diabetic mice (Day 4) is recorded as 195.00 ± 27.49 mg/dL. Moreover, in the experiment on STZ-diabetic mice (Day 5), the “Blood glucose level, fasting” value came to 200.60 ± 23.21 mg/dL. The “Blood glucose level, fasting” value in the experiment with STZ-diabetic mice (Day 6) worked out at 188.60 ± 15.86 mg/dL.

In the case of `O=C(NCC(=O)N1CCn2c(nnc2C(F)(F)F)C1)c1ccc(Cl)cc1` [GLP-131], in experiment [1], the “glucose-lowering activity in OGTT compared with sitagliptin (in words)” value is “higher glucose-lowering activity than sitagliptin” and the “Relative potency … (OGTT AUC)” value stood at 1.52. In addition, in experiment [1] (2 h before glucose loading), the “AUC in OGTT, % change” value is −36.88%; the “AUC in OGTT, Δ from diabetic control” value is -18835 mg·min/dL; the “AUC in OGTT, X (arithmetic mean)” value is 32230* mg · dL^−1 · min. In addition, in experiment [2], the “antihyperglycemic activity” value is on record as “significant antihyperglycemic activity”; the “Area” value is on record as 56340 ± mg · dL^−1 · min. Further, in experiment [3], the “AUC in OGTT, % change” value is on record as −49.59%; the “AUC in OGTT, Δ from diabetic control” value is -26113 mg·min/dL; the “Relative potency … (OGTT AUC)” value turned out to be 1.31; the “AUC in OGTT, X (arithmetic mean)” value is on record as 26542* mg · dL^−1 · min. For the same compound, the “relative potency in OGTT compared with sitagliptin (in words)” value in experiment [3] (6 consecutive days, 50 mg/kg) is listed as “comparable or higher relative potency than sitagliptin”. Also, in the experiment with STZ-diabetic mice, the “activity in controlling the rise” value is reported as “significant activity”; the “control of fasting blood sugar compared with sitagliptin and the other compounds (in words)” value was “most consistent and extended activities”. In the experiment on STZ-diabetic mice (listed as 131), the “control of fasting blood sugar compared with sitagliptin and the other compounds (in words)” value is reported as “comparable to that of sitagliptin”.
